Some test systems named below: XF 498 CNS; KM12 colon; LXFL 529 NSCLC; SNB-78 CNS; HOP-18 NSCLC; SNB-75 CNS; LOX IMVI melanoma; MDA-MB-231 breast; HS 578T breast; BT-549 breast.
Assay in all cases: growth of human tumour cells (NCI), 48 h

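Cultured in 96-well plates, cells were exposed to test compound for 48 hours across five concentrations. The concentration for 50% growth inhibition is given as GI50. The concentration for full growth arrest is given as TGI.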

On to `COc1ccccc1CCc1cc(OC)c(OC)c(OC)c1`, for which the TGI is 84.8 µM in the assay on XF 498 CNS; more than 100 µM in the assay with KM12 colon; more than 100 µM with LXFL 529 NSCLC; more than 100 µM with SNB-78 CNS; more than 100 µM with HOP-18 NSCLC; more than 100 µM in the assay with SNB-75 CNS. The compound further yielded a TGI in the assay on LOX IMVI melanoma of more than 100 µM.

Consider `CCC[CH2][Sn]1([CH2]CCC)[O]CC(CN2CCCC2)[O]1` (centres undefined), for which the GI50 in the assay with KM12 colon is 16.1 µM; in the assay with LXFL 529 NSCLC it was 4.33 µM; with SNB-78 CNS, 11.4 µM; in the assay on SNB-75 CNS it was 14.4 µM; in the assay on LOX IMVI melanoma, 12.3 µM. Besides, the TGI with KM12 colon was determined as 36.4 µM; in the assay on LXFL 529 NSCLC, 15.3 µM; with SNB-78 CNS it was 37.4 µM; with SNB-75 CNS it was 40.9 µM; with LOX IMVI melanoma, 26.8 µM.

`NCCCCN(CCCN)/[N+]([O-])=N\O`: the TGI in the assay with KM12 colon, with LXFL 529 NSCLC, in the assay with SNB-78 CNS, with HOP-18 NSCLC and in the assay with SNB-75 CNS was more than 100 µM each time.

Regarding `Cc1cn(C2CC(O)C(CO)O2)c(=O)n2nnnc12` (centres undefined), the TGI in the assay with KM12 colon, in the assay on LXFL 529 NSCLC, in the assay with SNB-78 CNS, with HOP-18 NSCLC, in the assay on SNB-75 CNS and with LOX IMVI melanoma was more than 100 µM throughout.

In the case of `COc1cc(C(C)O)c[n+](CCc2c[nH]c3ccccc23)c1` (centres undefined), the TGI in the assay on XF 498 CNS, in the assay with KM12 colon, in the assay with LXFL 529 NSCLC, with SNB-75 CNS and in the assay with LOX IMVI melanoma was more than 100 µM in each case.

In the case of `N#CC(NNC(=O)Cc1ccccc1)c1c(O)ccc2ccccc12` (centres undefined), the TGI in the assay with MDA-MB-231 breast is 58.9 µM; with HS 578T breast it was 50.5 µM; in the assay with KM12 colon, more than 72.4 µM; in the assay on BT-549 breast it was 24.7 µM; in the assay on SNB-78 CNS, 72 µM; in the assay with HOP-18 NSCLC, 35.4 µM. For the same compound, the values for the TGI in the assay with SNB-75 CNS and in the assay on LOX IMVI melanoma were 45 µM and 14.3 µM, respectively.

On to `C[C@@H]1CC(=O)C2CCCC1C2=O` (some centres undefined), for which the TGI in the assay with KM12 colon, with LXFL 529 NSCLC, with SNB-78 CNS, in the assay with HOP-18 NSCLC, in the assay with SNB-75 CNS and with LOX IMVI melanoma was more than 100 µM each time.

Regarding `CC1(C)SCc2nc3ncccc3n21`, the TGI in the assay with XF 498 CNS, in the assay with KM12 colon, with LXFL 529 NSCLC, in the assay on SNB-78 CNS, with SNB-75 CNS and in the assay with LOX IMVI melanoma was more than 100 µM throughout.

In the case of `Cc1cccc(NC(=O)/C(=N\NC(C)(C)C)C2NC(=S)NC2=O)c1C` (centres undefined), the TGI in the assay on KM12 colon, in the assay with LXFL 529 NSCLC and in the assay on SNB-78 CNS was more than 100 µM throughout.

With `Cc1ccc(C2=C(c3ccccc3)C(Br)(c3ccc(C)cc3)C(c3ccccc3)=C2c2ccc(C)cc2)cc1`, the TGI with XF 498 CNS, in the assay on KM12 colon, in the assay with LXFL 529 NSCLC, with SNB-78 CNS, in the assay on HOP-18 NSCLC and in the assay on LOX IMVI melanoma was more than 100 µM throughout.

Regarding `CC(C)(C)c1ccc2c(c1)S(=O)(=O)Nc1ccccc1NS(=O)(=O)c1cc(C(C)(C)C)ccc1OCCOCCOCCO2`, the TGI with KM12 colon, in the assay with SNB-78 CNS, with HOP-18 NSCLC, in the assay on SNB-75 CNS and in the assay on LOX IMVI melanoma was more than 100 µM each time.

Consider `COc1ccc(C(=O)C(C(=O)CCC(=O)Nc2cccc(Cl)c2)c2ccc(OC)cc2)cc1` (centres undefined), for which the TGI with XF 498 CNS, in the assay with KM12 colon, in the assay on LXFL 529 NSCLC, in the assay with HOP-18 NSCLC and in the assay with SNB-75 CNS was more than 100 µM each time.

For `Cc1ccn2c(c1)nc1nc3ccccc3nc12`, the TGI in the assay with XF 498 CNS, in the assay on KM12 colon, in the assay on LXFL 529 NSCLC, with SNB-78 CNS, in the assay on SNB-75 CNS and in the assay with LOX IMVI melanoma was more than 100 µM each time.

As for `C1=CC2SSSC2C1` (centres undefined), the TGI in the assay with XF 498 CNS, in the assay on KM12 colon, in the assay on LXFL 529 NSCLC, in the assay with HOP-18 NSCLC, in the assay on SNB-75 CNS and in the assay with LOX IMVI melanoma was more than 100 µM each time.

As to `CCOC(=O)c1c(C)n(Cc2ccc(Cl)cc2Cl)c2c1c(CN(C)C)c(O)c1[nH]cnc12`, the GI50 was 16.3 µM in the assay on MDA-MB-231 breast; 29.1 µM in the assay with HS 578T breast; 17.8 µM in the assay on KM12 colon; 23.6 µM in the assay on BT-549 breast; 3.55 µM in the assay with SNB-75 CNS; 15.7 µM in the assay on LOX IMVI melanoma. The TGI with MDA-MB-231 breast came out at 31.9 µM; in the assay with HS 578T breast, 81.8 µM; with KM12 colon, 35.8 µM; in the assay on BT-549 breast, 48.5 µM; with SNB-75 CNS, 17 µM; in the assay with LOX IMVI melanoma, 29.1 µM.

Turning to `NS(=O)(=O)c1ccc(N=Nc2c(O)[nH]c3ccc(-c4cnco4)cc23)cc1`, the GI50 in the assay with MDA-MB-231 breast is more than 25 µM; in the assay with HS 578T breast it was more than 25 µM; in the assay on KM12 colon it was 6.86 µM; in the assay on BT-549 breast, 18 µM; in the assay on SNB-75 CNS, 10.1 µM; with LOX IMVI melanoma, 22.8 µM. In addition, the TGI is more than 25 µM with MDA-MB-231 breast; more than 25 µM in the assay with HS 578T breast; more than 23.9 µM in the assay on KM12 colon; more than 25 µM with BT-549 breast; more than 25 µM in the assay on SNB-75 CNS; more than 25 µM in the assay with LOX IMVI melanoma.

Regarding `CCOc1ccccc1NC(=O)CC(C(=O)OC)C(=O)C(=O)OC` (centres undefined), the TGI in the assay on KM12 colon, with LXFL 529 NSCLC, with SNB-78 CNS, in the assay on HOP-18 NSCLC and with LOX IMVI melanoma was more than 100 µM in each case.

Consider `COC1(OC)C2(Cl)C(Cl)=C(Cl)C1(Cl)C1C=CC=CC12` (centres undefined), for which the TGI in the assay with XF 498 CNS, with KM12 colon, with LXFL 529 NSCLC, in the assay with SNB-78 CNS, in the assay with SNB-75 CNS and in the assay with LOX IMVI melanoma was more than 100 µM each time.
